From US10322132B2, “Prevention or treatment of uratic or gouty diseases” (SHANTON PHARMA CO., LTD., priority 2015, dated 2019) come the findings set out here.

For data set [1], the target named is T1, human urate transporter 1 (hURAT1) (Homo sapiens, UniProt Q96S37).
T1 construct: expressed in transfected cells; host or cells: HEK-293T
T1 sequence (Q96S37 1-553): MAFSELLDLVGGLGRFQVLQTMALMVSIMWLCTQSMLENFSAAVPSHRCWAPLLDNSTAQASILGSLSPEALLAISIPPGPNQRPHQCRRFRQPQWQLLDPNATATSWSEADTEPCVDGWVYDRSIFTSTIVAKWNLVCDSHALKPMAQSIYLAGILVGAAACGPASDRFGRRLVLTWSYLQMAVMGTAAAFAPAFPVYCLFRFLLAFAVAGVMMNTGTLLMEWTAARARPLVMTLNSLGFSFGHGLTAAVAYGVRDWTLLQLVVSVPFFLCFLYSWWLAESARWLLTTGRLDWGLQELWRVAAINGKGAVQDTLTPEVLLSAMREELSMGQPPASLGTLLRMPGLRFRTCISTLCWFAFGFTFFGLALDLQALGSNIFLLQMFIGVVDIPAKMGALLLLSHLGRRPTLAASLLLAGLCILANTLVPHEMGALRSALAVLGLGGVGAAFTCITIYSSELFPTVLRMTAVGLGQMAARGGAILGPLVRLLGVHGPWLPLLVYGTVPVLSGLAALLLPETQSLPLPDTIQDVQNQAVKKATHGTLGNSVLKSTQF
The data set is described as follows: Uptake of 14C-labeled uric acid in hURAT1 transfected cells. In kind it is cell-based. The note with it: 14C uric acid uptake, hURAT1-transfected HEK-293T cells, 5 min at 37° C.; read-out: IC50 (μM), inhibition of hURAT1 activity.
Protocol: The compounds were prepared into the stock solutions (5 mM) with dimethyl sulfoxide (DMSO). This experiment involved 8 concentrations in total. The final concentrations were 5000 nM, 1250 nM, 312.5 nM, 78.1 nM, 19.5 nM, 4.9 nM, 1.2 nM and 0.3 nM, respectively.
Preparation of buffers: chlorine-free HBSS buffer (125 mM sodium gluconate, 4.8 mM potassium gluconate, 1.3 mM calcium gluconate, 1.2 mM KH2PO4, 1.2 mM MgSO4, 5.6 mM glucose, 25 mM 4-hydroxyethylpiperazine ethanesulfonic acid (HEPES) (pH 7.4)); lysis buffer (100 mM NaOH)
Transfected cells stably expressing human urate transporter 1 (hURAT1) were obtained by: placing human embryonic kidney cells (HEK-293T) in a cell culture plate containing complete medium, incubating the cells for 24 h at 37° C. in 5% CO2, rinsing the cells with phosphate buffered saline (PBS) followed by trypsin digestion to prepare a suspension containing single cells; placing 8×10^6 cells a cell culture plate, adding dropwise TransIT-293 Reagent:DNA complexes (1.5 ml of Opti-MEM I Reduced-Serum Medium, 15 g of plasmid DNA, and 45 μL of TransIT-293 Reagent were mixed uniformly and then incubated at room temperature for 30 min) to different areas of the cell culture plate, gently shaking the cell culture plate to homogeneously distribute the TransIT-293 Reagent:DNA complexes, and incubating the cells for 48 h at 37° C. in 5% CO2.
Uptake of ^14C-labeled uric acid in hURAT1 transfected cells: (1) hURAT1-transfected cells were placed in a Poly-D-lysine 96-well microplate at a cell density of 6×10^4/well, and left still overnight at 37° C. in 5% CO2; (2) after the cells were placed in the Poly-D-lysine 96-well microplate for 12 h, the cells were washed for 3 times with 200 μl of pre-heated chlorine-free HBSS buffer per well, and the washing solution in the microplate was removed; (3) 50 μl of uric acid-containing [8-14C] […]

The test system of data set [2] is MSU-induced gouty arthritis. The data set is described as follows: Pain value in rats with gouty arthritis (electronic Von Frey pain threshold detector). In kind it is in vivo, Male Wistar rats. The note with it: for Pain value: Example 5, 15 mg/kg subcutaneous, left foot, Von Frey; for effect on pain values in the test rats (in words): Example 5, compared with the model group. As for the experimental part: The rats with gouty arthritis were placed in a metabolic cage, and the palm center of the left foot of each rat was irritated with an electronic Von Frey pain threshold detector. The maximum stress value was recorded when each rat withdrew its foot, and the value was the pain value of that rat.

A further data set deals with serum uric acid. The data set is described as follows: Uric acid-lowering experiment in cynomolgus monkeys. In kind it is in vivo. The arrangement: Reduction rate of serum uric acid: concentration or dose not given beside the values. The note with it: for effect on serum uric acid levels in the test monkeys (in words): compared to the levels measured before administration; for Reduction rate of serum uric acid / Content of serum uric acid: intravenous. As for the experimental part: The experiment was done by reference to Komoriya K, Osada Y, Hasegawa M, Horiuchi H, Kondo S, Couch R C, Griffin T B. Hypouricemic effect of allopurinol and the novel xanthine oxidase inhibitor TEI-6720 in chimpanzees. Eur J Pharmacol. 1993 Dec. 21; 250(3): 455-60.
Each compound was tested in three non-naïve cynomolgus monkeys (1 #, 2 # and 3 #), wherein the monkeys were administered with test samples by intravenous injection. Blood was collected from the vein before administration and 1 h, 3 h, 6 h and 24 h after administration. The blood was left still at room temperature. The serum was collected by centrifugation. The content of uric acid in serum was measured. Reduction rate of serum uric acid=(average uric acid content before administration−average uric acid content after administration)/average uric acid content before administration*100%.

Data set [3] in a line: Pharmacokinetics experiment in cynomolgus monkeys, intravenous. In kind it is in vivo, cynomolgus monkeys (Macaca fascicularis). The note with it: 5 mg/kg, Mean ± SD, n = 3. As for the experimental part: Three non-naïve cynomolgus monkeys were administered with test compounds A, B and D at a dose of 5 mg/kg by intravenous injection and with test compound C at a dose of 3 mg/kg by intravenous injection, with one compound being tested at a time. Blood was collected from the vein before administration and 1 h, 3 h, 6 h and 24 h after administration, and plasma was isolated. The plasma was analyzed by a 4000 Q Trap LC-MS/MS instrument. The concentrations of the test samples were output by Analyst 1.6.1 from AB Company. The parameters ( ) such as the mean, standard deviation, and coefficient of variation were calculated using Microsoft Excel, wherein the values directly output by Analyst 1.6.1 requires no calculation. PK parameters were calculated using Pharsight Phoenix 6.2 software (NCA model).

Data set [4] concerns MSU-induced gouty arthritis. Briefly: MSU-induced gouty arthritis, toe volume. In kind it is in vivo, Male Wistar rats. To be noted: for Inhibition of toe volume change (%) / Toe volume change: 9 h after MSU; for Inhibition of toe volume change (%): vs model group; for effect on increase of the toe volumes in the test rats (in words): compared with the model group. The method, then:
The experiment was done by reference to Hsin-Pai Lee, Shi-Ying Huang, Yen-You Lin. Soft Coral-Derived Lemnalol Alleviates Monosodium Urate-Induced Gouty Arthritis in Rats by Inhibiting Leukocyte Infiltration and iNOS, COX-2 and c-Fos Protein Expression. […] 2013, 11, 99-113.
One gram of uric acid was weighed, introduced into 200 mL of boiling water and heated. Then, NaOH (2 mol/L) was added until pH reached 9. The solution became clear, and was cooled at room temperature and then left still overnight. MSU was obtained after filtration, which was dried at 60° C. for 24 h and then sterilized at a high temperature of 180° C.
The toe volumes of the rats were measured one day prior to the experiment. The rats were administered with the solvent by subcutaneous injection in the model group at a dose of 5 mL/kg, while the rats were administered with test samples by subcutaneous injection in administration groups at a dose of 5 mg/kg. Rats were anesthetized immediately after administration and were injected with 0.09 mL of MSU suspension into the joint cavity of the left ankle. The volume of the left toe was measured in rats 9 h after the injection of MSU into the ankle joint cavity.
The toe volumes of the rats were measured one day prior to the experiment. The rats were administered with the solvent by subcutaneous injection in the model group at a dose of 15 mL/kg, while the rats were administered with test samples by subcutaneous injection in administration groups at a dose of 15 mg/kg or 10 mg/kg. Rats were anesthetized immediately after administration and were injected with 0.09 mL of MSU suspension into the joint cavity of the left ankle. The volume of the left toe was measured in rats 9 h after the injection of MSU into the ankle joint cavity.
The toe volumes of rats were measured one day prior to the experiment. The rats were administered with the solvent by subcutaneous injection in the model group at a dose of 15 mL/kg, while the rats were administered with the test sample by subcutaneous injection in administration group at a dose of 15 mg/kg. Rats were anesthetized immediately after administration and were injected with 0.09 mL of MSU suspension into the joint cavity of the left ankle. The volume of the left toe in each rat was measured 9 h after the injection of MSU into the ankle joint cavity.

Setting [5] is: 3 h after administration vs before administration, animal 1#.
[6] abbreviates: 3 h after administration vs before administration, animal 2#.
Where [7] appears, read: 3 h after administration vs before administration, mean.
Setting [8] is: 3 h after administration, animal 1#.
[9] abbreviates: 3 h after administration, animal 2#.
Setting [10] is: Example 5, 15 mg/kg or 10 mg/kg.
Setting [11] is: Example 5, 15 mg/kg subcutaneous.

`CCCCCn1c(=O)[nH]c(=O)c2[nH]c(Cl)nc21` [Compound A, 8-chloro-3-pentyl-3,7-dihydro-1H-purine-2,6-dione]: the IC50 in data set [1] is 2.52 µM. In data set [2], the “Pain value” was 47.51 g. Further, the “effect on pain values in the test rats (in words)” value in data set [2] was “significantly increase”. Further, in the data set with serum uric acid, the “effect on serum uric acid levels in the test monkeys (in words)” value was “significantly reduce”. Besides, the “Reduction rate of serum uric acid” value with serum uric acid (setting [5]) came out at 18.5%; with serum uric acid (setting [6]) it was 38.0%; in the data set with serum uric acid (3 h after administration vs before administration, animal 3#) it was 5.98%; in the data set with serum uric acid (setting [7]) it was 22.8%; in the data set on serum uric acid (6 h after administration vs before administration, animal 1#) it was 10.9%; in the data set on serum uric acid (6 h after administration vs before administration, animal 2#), 48.2%. Besides, the “Reduction rate of serum uric acid” value is 20.9% in the data set with serum uric acid (6 h after administration vs before administration, animal 3#) and 28.5% in the data set with serum uric acid (6 h after administration vs before administration, mean). In addition, the “Content of serum uric acid” value was determined as 61.9 µmol/L in the data set on serum uric acid (setting [8]); 57.0 µmol/L in the data set on serum uric acid (setting [9]); 59.9 µmol/L in the data set with serum uric acid (3 h after administration, animal 3#); 59.6 µmol/L in the data set with serum uric acid (3 h after administration, mean); 67.6 µmol/L in the data set with serum uric acid (6 h after administration, animal 1#); 47.6 µmol/L in the data set with serum uric acid (6 h after administration, animal 2#). The “Content of serum uric acid” value was 50.4 µmol/L with serum uric acid (6 h after administration, animal 3#) and 55.2 µmol/L with serum uric acid (6 h after administration, mean). Also, in data set [3], the “t1/2z” value is recorded as 14.55 ± 6.69 h. Besides, the “Change of toe volume” value in data set [4] (Example 4, 5 mg/kg subcutaneous, 9 h after MSU injection into left ankle joint cavity) was 0.416 mL. The “Inhibition of toe volume change (%)” value in data set [4] (Example 4, 5 mg/kg subcutaneous) amounted to 17.5%; in data set [4] (setting [11]) it was 34.7%. Further, the “effect on increase of the toe volumes in the test rats (in words)” value in data set [4] (Example 4, 5 mg/kg) is on record as “significantly inhibit”; in data set [4] (setting [10]) it was “significantly inhibit”. In data set [4] (setting [11]), the “Toe volume change” value amounted to 0.264 mL.

In the case of `CCCCCn1c(=O)n(C)c(=O)c2[nH]c(Cl)nc21` [Compound D, 8-chloro-1-methyl-3-pentyl-3,7-dihydro-1H-purine-2,6-dione], the IC50 in data set [1] was 0.87 µM. In addition, the “Pain value” in data set [2] turned out to be 43.10 g. Further, the “effect on pain values in the test rats (in words)” value in data set [2] is recorded as “significantly increase”. In the data set on serum uric acid, the “effect on serum uric acid levels in the test monkeys (in words)” value is on record as “significantly reduce”. Further, the “Reduction rate of serum uric acid” value in the data set on serum uric acid (setting [5]) was 14.3%; with serum uric acid (setting [6]), 13.6%; in the data set with serum uric acid (setting [7]), 13.9%. The “Content of serum uric acid” value stood at 49.6 µmol/L in the data set on serum uric acid (setting [8]); 47.1 µmol/L with serum uric acid (setting [9]); 48.4 µmol/L in the data set on serum uric acid (3 h after administration, mean). Further, in data set [3], the “t1/2z” value is given as 5.90 ± 0.42 h. The “effect on increase of the toe volumes in the test rats (in words)” value in data set [4] (setting [10]) was “significantly inhibit”. For the same compound, the “Toe volume change” value in data set [4] (setting [11]) was found to be 0.232 mL. Further, the “Inhibition of toe volume change (%)” value in data set [4] (setting [11]) came to 42.6%.
